According to ChEMBL document CHEMBL3044672, “N9- and N7-(Chloromethyl Phenymethyl)Chloropurine Derivatives from , '-Dichloroxylenes: Synthesis and Anticancer Activity” (2005):

Legend:
Format in all cases: functional
[1] = system: NCI-H460; assay: Cytotoxicity against Homo sapiens (human) NCI-H460 cells assessed as cell growth at 10^-4 M after 48 hr by Alamar blue assay; details: NCI-H460, 48 h, read-out: Activity
[2] = system: NCI-H23; assay: Cytotoxicity against Homo sapiens (human) NCI-H23 cells after 48 hr by sulforhodamine B assay; details: NCI-H23, 48 h; for CC50: read-out: LC50 (the source's name)
[3] = system: UACC-62; assay: Cytotoxicity against Homo sapiens (human) UACC62 cells after 48 hr by sulforhodamine B assay; details: UACC-62, 48 h
[4] = system: SF-539; assay: Cytotoxicity against Homo sapiens (human) SF539 cells after 48 hr by sulforhodamine B assay; details: SF-539, 48 h
[5] = system: PC-3; assay: Cytotoxicity against Homo sapiens (human) PC3 cells after 48 hr by sulforhodamine B assay; details: PC-3, 48 h
[6] = system: RPMI-8226; assay: Cytotoxicity against Homo sapiens (human) RPMI8226 cells after 48 hr by sulforhodamine B assay; details: RPMI-8226, 48 h; for CC50: read-out: LC50 (the source's name)
[7] = system: SNB-19; assay: Cytotoxicity against Homo sapiens (human) SNB19 cells after 48 hr by sulforhodamine B assay; details: SNB-19, 48 h
[8] = system: SF-268; assay: Cytotoxicity against Homo sapiens (human) SF268 cells after 48 hr by sulforhodamine B assay; details: SF-268, 48 h; for CC50: read-out: LC50 (the source's name)
[9] = system: MDA-MB-231; assay: Cytotoxicity against Homo sapiens (human) MDA-MB-231 cells after 48 hr by sulforhodamine B assay; details: MDA-MB-231, 48 h
[10] = system: OVCAR-4; assay: Cytotoxicity against Homo sapiens (human) OVCAR4 cells after 48 hr by sulforhodamine B assay; details: OVCAR-4, 48 h
[11] = system: HT-29; assay: Cytotoxicity against Homo sapiens (human) HT-29 cells after 48 hr by sulforhodamine B assay; details: HT-29, 48 h; for CC50: read-out: LC50 (the source's name)
[12] = system: HOP-62; assay: Cytotoxicity against Homo sapiens (human) HOP62 cells after 48 hr by sulforhodamine B assay; details: HOP-62, 48 h; for CC50: read-out: LC50 (the source's name)
[13] = system: COLO 205; assay: Cytotoxicity against Homo sapiens (human) COLO205 cells after 48 hr by sulforhodamine B assay; details: COLO 205, 48 h; for CC50: read-out: LC50 (the source's name)
[14] = system: EKVX; assay: Cytotoxicity against Homo sapiens (human) EKVX cells after 48 hr by sulforhodamine B assay; details: for CC50: read-out: LC50 (the source's name)
[15] = system: LOX IMVI; assay: Cytotoxicity against Homo sapiens (human) LOXIMVI cells after 48 hr by sulforhodamine B assay
[16] = system: RXF 393; assay: Cytotoxicity against Homo sapiens (human) RXF393 cells after 48 hr by sulforhodamine B assay; details: RXF 393, 48 h
[17] = system: SK-MEL-5; assay: Cytotoxicity against Homo sapiens (human) SK-MEL-5 cells after 48 hr by sulforhodamine B assay; details: SK-MEL-5, 48 h
[18] = system: NCI-H522; assay: Cytotoxicity against Homo sapiens (human) NCI-H522 cells after 48 hr by sulforhodamine B assay; details: NCI-H522, 48 h; for CC50: read-out: LC50 (the source's name)
[19] = system: OVCAR-8; assay: Cytotoxicity against Homo sapiens (human) OVCAR8 cells after 48 hr by sulforhodamine B assay; details: OVCAR-8, 48 h
[20] = system: SN12C; assay: Cytotoxicity against Homo sapiens (human) SN12C cells after 48 hr by sulforhodamine B assay
[21] = system: MCF7; assay: Cytotoxicity against Homo sapiens (human) MCF7 cells after 48 hr by sulforhodamine B assay; details: MCF7, 48 h
[22] = system: SNB-75; assay: Cytotoxicity against Homo sapiens (human) SNB75 cells after 48 hr by sulforhodamine B assay; details: SNB-75, 48 h; for CC50: read-out: LC50 (the source's name)
[23] = system: KM12; assay: Cytotoxicity against Homo sapiens (human) KM12 cells after 48 hr by sulforhodamine B assay; details: KM12, 48 h; for CC50: read-out: LC50 (the source's name)
[24] = system: SF-268; assay: Cytotoxicity against Homo sapiens (human) SF268 cells assessed as cell growth at 10^-4 M after 48 hr by […] assay; details: SF-268, 48 h, read-out: Activity
[25] = system: BT-549; assay: Cytotoxicity against Homo sapiens (human) BT549 cells after 48 hr by sulforhodamine B assay; details: BT-549, 48 h
[26] = system: K562; assay: Cytotoxicity against Homo sapiens (human) K562 cells after 48 hr by sulforhodamine B assay; details: K562, 48 h; for CC50: read-out: LC50 (the source's name)
[27] = system: SK-OV-3; assay: Cytotoxicity against Homo sapiens (human) SKOV3 cells after 48 hr by sulforhodamine B assay; details: SK-OV-3, 48 h

## ClCc1ccc(Cn2cnc3nc(Cl)nc(Cl)c32)cc1
[1]
  growth at 100 µM: 0%
[2]
  GI50: 2.34 µM
  TGI: 4.57 µM
  CC50: 8.91 µM
[3]
  GI50: 1.65 µM
  LC50 (concentration causing 50% net cell kill): 6.02 µM
  TGI: 3.16 µM
[4]
  GI50: 1.86 µM
  LC50 (concentration killing 50% of cells): 5.88 µM
  TGI: 3.31 µM
[5]
  GI50: 17.8 µM
  LC50 (concentration causing 50% cell kill): 75.9 µM
  TGI: 37.1 µM
[6]
  GI50: 1.65 µM
  TGI: 28.2 µM
  CC50: 97.7 µM
[7]
  GI50: 29.5 µM
  LC50: > 100 µM
  TGI: > 100 µM
[8]
  GI50: 1.99 µM
  TGI: 3.98 µM
  CC50: 7.94 µM
[9]
  GI50: 1.62 µM
  LC50: 6.02 µM
  TGI: 3.09 µM
[10]
  GI50: 2.08 µM
  TGI: 4.16 µM
[11]
  GI50: 3.54 µM
  TGI: > 100 µM
  CC50: > 100 µM
[12]
  GI50: 1.9 µM
  TGI: 3.89 µM
  CC50: 7.94 µM
[13]
  GI50: 17.4 µM
  TGI: > 100 µM
  CC50: > 100 µM
[14]
  GI50: 1.9 µM
  TGI: 3.46 µM
  CC50: 6.3 µM
[15]
  GI50: 1.62 µM
  LC50: 6.45 µM
  TGI: 3.23 µM
[16]
  GI50: 1.65 µM
  TGI: 3.98 µM
[17]
  GI50: 2.45 µM
  LC50: 31.6 µM
  TGI: 9.12 µM
[18]
  GI50: 1.77 µM
  TGI: 4.57 µM
  CC50: 38 µM
[19]
  GI50: 1.99 µM
  LC50 (concentration killing 50% of cells): 8.31 µM
  TGI: 4.07 µM
[20]
  GI50: 1.86 µM
  LC50 (50% lethal concentration): 6.6 µM
  TGI: 3.46 µM
[21]
  GI50: 4.16 µM
  LC50 (concentration killing 50% of cells): 83.2 µM
  TGI: 17 µM
[22]
  GI50: 2.08 µM
  TGI: 3.98 µM
  CC50: 7.41 µM
[23]
  GI50: 0.26 µM
  TGI: 0.67 µM
  CC50: 2.45 µM
[24]
  growth at 100 µM: 0%
[25]
  GI50: 1.86 µM
  LC50 (50% lethal concentration): 6.45 µM
  TGI: 3.46 µM
[26]
  GI50: 3.31 µM
  TGI: > 100 µM
  CC50: > 100 µM
[27]
  GI50: 2.34 µM
  LC50: 18.2 µM
  TGI: 5.01 µM

## Nc1nc(Cl)c2ncn(Cc3ccc(CCl)cc3)c2n1
[1]
  growth at 100 µM: 0%
[2]
  TGI: 30.2 µM
  CC50: 77.6 µM
[3]
  LC50 (concentration causing 50% net cell kill): 53.7 µM
  TGI: 8.13 µM
[4]
  LC50 (concentration killing 50% of cells): 46.8 µM
  TGI: 10 µM
[5]
  LC50 (concentration causing 50% cell kill): 70.8 µM
  TGI: 25.1 µM
[6]
  TGI: > 100 µM
  CC50: > 100 µM
[7]
  LC50: 46.8 µM
  TGI: 19.9 µM
[8]
  TGI: 8.32 µM
  CC50: 38.9 µM
[9]
  LC50: 91.2 µM
  TGI: 34.7 µM
[10]
  LC50 (concentration killing 50% of cells): 57.5 µM
  TGI: 30.2 µM
[11]
  TGI: 27.5 µM
  CC50: 77.6 µM
[12]
  TGI: 27.5 µM
  CC50: 91.2 µM
[13]
  TGI: 13.5 µM
  CC50: 42.7 µM
[14]
  TGI: 7.24 µM
  CC50: 28.2 µM
[15]
  LC50: > 100 µM
  TGI: 43.6 µM
[16]
  TGI: 7.24 µM
[16]; read-out: LC50 (the source's name)
  CC50: 35.5 µM
[17]
  LC50: 63.1 µM
  TGI: 31 µM
[18]
  GI50: 10.9 µM
  TGI: 25.7 µM
  CC50: 63.1 µM
[19]
  LC50 (concentration killing 50% of cells): > 100 µM
  TGI: 33.1 µM
[20]
  LC50 (50% lethal concentration): 60.3 µM
  TGI: 26.9 µM
[21]
  LC50 (concentration killing 50% of cells): > 100 µM
  TGI: 17 µM
[22]
  TGI: 91.2 µM
  CC50: > 100 µM
[23]
  TGI: 22.9 µM
  CC50: 57.5 µM
[24]
  growth at 100 µM: 90%
[25]
  LC50 (50% lethal concentration): 69.2 µM
  TGI: 24.6 µM
[26]
  TGI: > 100 µM
  CC50: > 100 µM
[27]
  LC50: 64.5 µM
  TGI: 30.9 µM
